Results on eight molecules are retold here after patent publication US12496297B1, “Compositions of autophagy modulating agents and uses thereof” (Washington University, priority 2020, dated 2025).

A word on the IC50: it is the concentration that inhibits the measured activity by half.

Entries after “also recorded” stand apart in the source; their conditions may differ.

The test system of test [1] is α1-antitrypsin Z variant (ATZ). As to the kind of experiment: Steady state levels of ATZ in HTO/Z cell line (immunoblot); activity of G2 analogs. In kind it is cell-based, human. The settings on record: for effect on cellular ATZ levels: 48 hrs incubation, immunoblot, FIG. 8 / FIG. 14; for Activity: G2 and G2 analogs, positive activity if shown to have any activity, not quantified; for IC50: TABLE 1, assay not given. The protocol: For experiments with G2 analogs, Tet-off inducible cell lines were cultured in absence of doxycycline for at least 12 days to ensure expression of […] or its variants. The cells were then sub-cultured into separate monolayers in fresh complete growth medium and incubated for 48 hours in the absence or presence of G2 analog. […] All compounds available commercially were purchased except for G2-22, which was synthesized with routine chemistry.
Cells were lysed in NP40 buffer and then separated into insoluble and soluble fractions according to a previously established technique. Samples were subjected to immunoblot analysis for AT and GAPDH. For immmunoblot analysis to detect AT or GAPDH, cells were lysed in 50 mM Tris-HCl, 150 mM NaCl, 1% NP-40, pH 8.0. Protein concentrations were determined by BCA protein assay (Pierce Biotechnology, Rockford, IL). […] The membranes were blocked in 5% milk and then incubated overnight at 4° C. with primary antibody for AT (1:1000, Diasorin), LC3 (1:2000, Sigma), p62 (1:1000, Cell signaling, Danvers, MA), ATG5 (1:1000, Cell signaling), mTOR substrate sampler (1:1000 for all antibodies, Cell signaling). Donkey anti-goat Ig (Jackson Labs, Bar Harbor, ME), goat anti-rabbit lg (1:50,000), or goat anti-mouse Ig (1:50,000) were used as secondary antibodies in TBST at RT, 1 hour. Blots were visualized with ECL or West Femto from Pierce. Membranes were re-probed with GAPDH (1:5000, Sigma) as loading control. Insoluble samples were stained with Gel Code Blue as loading control.
For orientation: Immunoblotting shows a protein as a band on a membrane.

Test [2] concerns C. elegans model of ATD (sGFP::ATZ). As to the kind of experiment: Quantification of ATZ accumulation in C. elegans model of ATD (Z worm). The test is classed as in vivo. The settings on record: 24 h incubation, FIG. 9. The method, then: The C. elegans strain VK1882 (vkls1882 [nhx-2p::sGFP::ATZ; myo-2p::mCherry) was routinely cultured at 20° C. on nematode growth medium plates seeded with E. coli strain OP50. Quantitative analysis of ATZ accumulation was carried out by detection of fluorescence using the Thermofisher CellInsight CX-7 high content imager as previously described. L4 stage animals were placed into wells of 384-well plates (30 per well) containing G2 analogs or an equivalent volume of DMSO. Following incubation at 20° C. for 24 hours, sodium azide was added to a final concentration of […] to anesthetize the animals and then each well was imaged on the CX-7 high content imager for quantification.

In a further test the test system is PiZ mouse model of ATD. Description: PiZ mouse model of ATD, oral gavage. The test is classed as in vivo. As to conditions: PiZ mouse. The method, then:
The PiZ mouse model has been described previously (Hidvegi 2010 Science 329 (5988): 229-232). For experiments involving drug administration in mice in vivo, doses of 5-50 mg/kg/day for the G2 analog were given for 3 weeks, and then liver histological and biochemical characteristics were assessed exactly as previously described (Hidvegi 2005J Biol Chem 280 (47): 39002-39015). Each experimental group contained 4-6 four- to six-month old male mice randomly chosen from littermates. G2 analogs were delivered by oral gavage. Control mice were littermates given DMSO by gavage. The outcome was determined by evaluating 1) the hepatic ATZ load by immunoblotting with anti-AT, immunostaining with PAS/D; 2) hepatic fibrosis using Sirius Red staining; 3) autophagy by immunoblotting with anti-LC3 and anti-p62, and imaging for GFP+autophagosomes; 4) monitoring blood glucose levels by glucometer and blood insulin levels by ELISA Wide Range Assay (CrystalChem). For immunostaining, liver samples were fixed in 10% Formalin, followed by staining with PAS after diastase and Sirius Red using standard techniques. Quantitative evaluation of immunostaining and histochemical staining was carried out by a member of the team that was blinded to group allocation. Blood glucose and insulin levels were quantified as previously described (Wang 2019 PLOS One 14: e0209748).
For immunoblot analysis of proteins in liver, the liver was snap frozen in liquid nitrogen and stored at −80° C. Liver was homogenized in 50 mM Tris-HCl pH 8.0, 150 mM NaCl, 2 mM KCl, 2 mM MgCl2, 0.5% Triton X-100, 0.5% deoxycholic acid containing 0.1 mM […] and Complete protease inhibitor cocktail from Roche. Total protein concentration was measured by BCA assay (Pierce) and followed by western blotting as described previously.

For test [3], the system named is striatal neurons from Huntington's patient GM 04198. As to the kind of experiment: Cell death (SytoX assay) in striatal neurons from Huntington's patient. The test is classed as cell-based, human. The method, then: (§1) Striatal neurons from Huntington's patient GM 04198 and control 2171WT were prepared as previously described. Cells, at 24 days after induction, were incubated with G2 analog or an equivalent volume of DMSO for 14 days (drug/DMSO added with medium change every 4 days) and then cell death was determined by SytoX assay as previously described.

For test [4], the system named is striatal neurons from control 2171WT. As to the kind of experiment: Cell death (SytoX assay) in striatal neurons from control individual. In kind it is cell-based, human. The settings on record: doses of 5 and 10 μM; data not shown. The protocol:
as §1

Test [5] has as its system HTT inclusion bodies (IBs) in HD-MSNs. Description: HTT inclusion bodies / mHTT aggregation in HD-MSNs. In kind it is cell-based, human. The settings on record: HD-MSNs, compared to the inactive form, FIG. 13. The protocol:
Adult dermal fibroblasts from symptomatic HD patients (Coriell NINDS and NIGMS Repositories: ND33947, ND30013, GM02173, GM04230, GM04198, GM02147), presymptomatic HD patients (GM04717, GM04861, GM04855, GM04831, GM04857, GM04829), and healthy controls (GM02171) were acquired from the Coriell Institute for Medical Research. The lentiviral cocktail of rtTA, pTight-9-124-BclxL, CTIP2, MYT1L, DLX1, and DLX2 was added to human fibroblasts for 16 h, then cells were washed and fed with fibroblasts media containing 1 μg/mL doxycycline (DOX). Briefly, transduced fibroblasts were maintained in fibroblasts media for two days with doxycycline before selection with Puromycin ([…]) on day 3, then were plated onto poly-ornithine, fibronectin, and laminin-coated coverslips on day 5. Cells were subsequently maintained in NeurobasalA (Gibco) media containing B-27 plus supplement and GlutaMAX supplemented with valproic acid (1 mM), dibutyryl cAMP ([…]), BDNF (10 ng/ml), NT-3 (10 ng/ml), and RA ([…]) until day 13. […]
Reprogramming cells were fixed with 4% paraformaldehyde (Electron Microscopy Sciences, #15710) for 20 min at room temperature (RT), and then permeabilized with 0.2% Triton X-100 for 10 min at RT. […] Images were captured using a Leica SP5X white light laser confocal system with Leica Application Suite (LAS) Advanced Fluorescence 2.7.3.9723.

For the molecule `Cn1ccc2cc(Cl)ccc2c1=O` [G2-19, 6-chloro-2-methylisoquinolin-1(2H)-one], in test [1], the “effect on cellular ATZ levels” value is “reduces ATZ levels in a dose-dependent manner; also recorded: more potent than G2-3” and the Activity result is listed as “Active (Highly Active)”. In addition, the “reduction of ATZ levels” value in test [1] (dose of 5 μM, 48 hrs, FIG. 8) was 60%. For the same molecule, the “effect on ATZ levels in intestinal cells of the ATZ worm” value in test [2] (GFP/RFP fluorescence) is “dose-dependent decrease in ATZ levels; also recorded: not as potent as positive control prochlorperazine (PCP)”. In addition, the “reduction in ATZ levels (fluorescence)” value in test [2] (at 40 µM) was around 50%. In the test with PiZ mouse model of ATD, the “hepatic ATZ load” value is recorded as “reduced hepatic ATZ load” and the insulin secretion entry is reported as “without affecting insulin secretion”. Besides, the “hepatic / liver fibrosis (Sirius Red staining)” value with PiZ mouse model of ATD (G2-19: 3 weeks of treatment vs placebo) is “marked and statistically significant decrease”. Moreover, in test [3] (FIG. 11, dose-dependent between 0.5 and 10 μM, 14 days), the “cell death (percent SYTOX positive cells)” value is reported as “reduces cell death”. Also, in test [3] (second experiment, FIG. 12, doses of 5 and 10 μM), the “neuronal death (percent SYTOX positive cells)” value is given as “reduced neuronal death”. Moreover, in test [4], the “neuronal death (percent SYTOX positive cells)” value is on record as “no effect”. In test [5], the “HTT inclusion body (IB)” value is “lowers HTT inclusion body (IB)”.
For `O=c1ccc2c(-c3ccccc3)cc(Cl)cc2[nH]1` [G2-196, 7-chloro-5-phenylquinolin-2(1H)-one], in test [1], the outcome was Active and the IC50 lay within 1000 to 10000 nM.
Turning to `O=c1ccc2c(-c3ncccn3)cc(Cl)cc2[nH]1` [G2-197, 7-chloro-5-(pyrimidin-2-yl)quinolin-2(1H)-one], in test [1], the result was Active and the IC50 was in the range of 1000 to 10000 nM.
On to `CCCCCCOc1cc(Cl)cc2[nH]c(=O)ccc12` [G2-218, 7-chloro-5-(hexyloxy)quinolin-2(1H)-one], for which, in test [1], the “effect on cellular ATZ levels” value is “reduce ATZ levels in a dose-dependent manner”, the result was Active and the IC50 was in the range of 100 to 1000 nM.
Take `O=c1ccc2c(Cl)cc(-c3ccccc3)cc2[nH]1` [G2-233, 5-chloro-7-phenylquinolin-2(1H)-one]: in test [1], the outcome was Active and the IC50 was in the range of 1000 to 10000 nM.
The corresponding values for `O=c1ccc2c(Cl)cc(N3CCCCC3)cc2[nH]1` [G2-235, 5-chloro-7-(piperidin-1-yl)quinolin-2(1H)-one] are “Active” and 1000 to 10000 nM.
On to `O=C(c1cc(Cl)c2ccc(=O)[nH]c2c1)N1CCCCC1` [G2-237, 5-chloro-7-(piperidine-1-carbonyl)quinolin-2(1H)-one], for which, in test [1], the “effect on cellular ATZ levels” value is “reduce ATZ levels in a dose-dependent manner”, the result was Active and the 50% inhibitory concentration (IC50) fell in the range of 100 to 1000 nM.
As for `CCCCCCOc1cc(Cl)c2ccc(=O)[nH]c2c1` [G-211, 5-chloro-7-(hexyloxy)quinolin-2(1H)-one], in test [1], the result was Active and the IC50 was in the range of 1000 to 10000 nM.
